Measurements taken from ChEMBL document CHEMBL4251633, “Design, synthesis, biological evaluation and cocrystal structures with tubulin of chiral β-lactam bridged combretastatin A-4 analogues as potent antitumor agents” (Eur J Med Chem, 2018).
The source made the active and inactive calls. No cut-off for these calls is given here.

Columns and labels:
[1] = system: HeLa; test: Induction of apoptosis in human HeLa cells assessed as early apoptotic cells at 50 nM after 48 hrs by Annexin V-FITC/propidium iodide staining based flow cytometry (reference value: 0.7%); type: functional
[2] = system: HeLa; test: Induction of apoptosis in human HeLa cells assessed as late apoptotic cells at 200 nM after 48 hrs by Annexin V-FITC/propidium iodide staining based flow cytometry (reference value: 2%); type: functional
[3] = system: HeLa; test: Induction of apoptosis in human HeLa cells after 48 hrs by Annexin V-FITC/propidium iodide staining based flow cytometry; type: functional, cell-based
[4] = Acute toxicity in ICR mouse assessed as survival rate at 100 mg/kg, ip measured on day 14 (reference value: 100%); type: organism-based; settings: in vivo
[5] = system: HeLa; test: Induction of apoptosis in human HeLa cells assessed as live cells at 100 nM after 48 hrs by Annexin V-FITC/propidium iodide staining based flow cytometry (reference value: 96.5%); type: functional
[6] = system: HeLa; test: Inhibition of alpha-tubulin polymerization in human HeLa cells assessed as increase in ratio of supernatant faction to pellet fraction at 500 nM after 6 hrs by Western blot analysis; type: cell-based
[7] = system: A2780; test: Antitumor activity against human A2780 cells xenografted in Balb/c nude mouse assessed as isolated tumor weight inhibition at 8 mg/kg, ip once in every 2 days measured after 14 days; type: functional, organism-based
[8] = system: HeLa; test: Upregulation of cleaved PARP1 protein expression in human HeLa cells after 48 hrs by Western blot analysis; type: functional, cell-based
[9] = system: HeLa; test: Induction of histone-H3 phosphorylation in human HeLa cells by Western blot analysis; type: cell-based
[10] = system: HeLa; test: Upregulation of p53 protein expression in human HeLa cells after 48 hrs by Western blot analysis; type: functional, cell-based
[11] = system: HeLa; test: Induction of apoptosis in human HeLa cells assessed as necrotic cells at 200 nM after 48 hrs by Annexin V-FITC/propidium iodide staining based flow cytometry (reference value: 0.9%); type: functional
[12] = system: HeLa; test: Induction of apoptosis in human HeLa cells assessed as late apoptotic cells at 50 nM after 48 hrs by Annexin V-FITC/propidium iodide staining based flow cytometry (reference value: 2%); type: functional
[13] = system: HeLa; test: Induction of apoptosis in human HeLa cells assessed as early apoptotic cells at 100 nM after 48 hrs by Annexin V-FITC/propidium iodide staining based flow cytometry (reference value: 0.7%); type: functional
[14] = system: Mus musculus; test: Acute toxicity in ICR mouse assessed as death at 100 to 200 mg/kg, ip measured after 4 days; type: organism-based; settings: in vivo, 96 h
[15] = system: MDA-MB-231; test: Antiproliferative activity against human MDA-MB-231 cells after 48 hrs by MTT assay; type: functional, cell-based; settings: MDA-MB-231, 48 h
[16] = system: HeLa; test: Induction of apoptosis in human HeLa cells assessed as live cells at 50 nM after 48 hrs by Annexin V-FITC/propidium iodide staining based flow cytometry (reference value: 96.5%); type: functional
[17] = system: Mus musculus; test: Toxicity in Balb/c nude mouse xenografted with human A2780 cells assessed as abnormality in liver at 8 mg/kg, ip once in every 2 days measured after 14 days by H and E staining based assay; type: organism-based; settings: in vivo, 336 h
[18] = system: A2780; test: Antitumor activity against human A2780 cells xenografted in Balb/c nude mouse assessed as tumor weight inhibition at 8 mg/kg, ip once in every 2 days measured up to 14 days; type: functional, organism-based
[19] = system: A2780; test: Antitumor activity against human A2780 cells xenografted in Balb/c nude mouse assessed as tumor volume inhibition at 8 mg/kg, ip once in every 2 days measured up to 14 days relative to control; type: functional
[20] = system: SK-OV-3; test: Antiproliferative activity against human SKOV3 cells after 48 hrs by MTT assay; settings: SK-OV-3, 48 h
[21] = system: A2780; test: Antitumor activity against human A2780 cells xenografted in Balb/c nude mouse assessed as induction of tumor necrosis at 8 mg/kg, ip once in every 2 days measured after 14 days by H and E staining based assay; type: functional, organism-based
[22] = (§1) Inhibition of pig brain tubulin polymerization measured every 1 min for 20 mins by spectrophotometric method; set-up: species or system Sus scrofa
[23] = species on record: Sus scrofa; test: as §1
[24] = species on record: Homo sapiens; test: Disruption of microtubule structure in human SKOV3 cells assessed as decrease in density at 100 nM after 24 hrs by DAPI staining based immunofluorescence assay; type: cell-based
[25] = system: HeLa; test: Induction of apoptosis in human HeLa cells assessed as early apoptotic cells at 200 nM after 48 hrs by Annexin V-FITC/propidium iodide staining based flow cytometry (reference value: 0.7%); type: functional
[26] = system: HeLa; test: Induction of apoptosis in human HeLa cells assessed as necrotic cells at 100 nM after 48 hrs by Annexin V-FITC/propidium iodide staining based flow cytometry (reference value: 0.9%); type: functional
[27] = system: Mus musculus; test: Acute toxicity in ICR mouse assessed as death at 100 mg/kg, ip measured after 2 days; type: organism-based; settings: in vivo, 48 h
[28] = system: Mus musculus; test: Acute toxicity in ICR mouse assessed as death at 150 mg/kg, ip measured after 3 days; type: organism-based; settings: in vivo, 72 h
[29] = system: Mus musculus; test: Toxicity in Balb/c nude mouse xenografted with human A2780 cells assessed as abnormality in kidney at 8 mg/kg, ip once in every 2 days measured after 14 days by H and E staining based assay; type: organism-based; settings: in vivo, 336 h
[30] = system: MDA-MB-231; test: Anticlonogenic activity against human MDA-MB-231 cells incubated for 48 hrs followed by replacement with fresh medium measured after 7 to 10 days by gentian violet staining based assay; type: functional, cell-based
[31] = system: Mus musculus; test: Anti-vascular activity in Balb/c nude mouse assessed as inhibition of VEGF-induced capillary blood vessel formation using sc injected matrigel plug supplemented with 100 nM test compound mixed with VEGF and measured after 1 week by matrigel plug assay; type: functional, organism-based
[32] = system: HeLa; test: Antiproliferative activity against human HeLa cells after 48 hrs by MTT assay; type: functional, cell-based
[33] = Acute toxicity in ICR mouse assessed as survival rate at 125 mg/kg, ip measured on day 14 (reference value: 100%); type: organism-based; settings: in vivo
[34] = Acute toxicity in ICR mouse assessed as survival rate at 200 mg/kg, ip measured on day 14 (reference value: 100%); type: organism-based; settings: in vivo
[35] = system: HeLa; test: Upregulation of Cyclin-B1 protein expression in human HeLa cells at 50 to 200 nM by Western blot analysis; type: functional, cell-based
[36] = system: Mus musculus; test: Acute toxicity in ICR mouse assessed as death at 100 to 275 mg/kg, ip measured after 5 to 14 days; type: organism-based; settings: in vivo
[37] = system: Mus musculus; test: Toxicity in Balb/c nude mouse xenografted with human A2780 cells assessed as abnormality in spleen at 8 mg/kg, ip once in every 2 days measured after 14 days by H and E staining based assay; type: organism-based; settings: in vivo, 336 h
[38] = system: HeLa; test: Upregulation of Bax protein expression in human HeLa cells after 48 hrs by Western blot analysis; type: functional, cell-based
[39] = system: HeLa; test: Induction of apoptosis in human HeLa cells assessed as live cells at 200 nM after 48 hrs by Annexin V-FITC/propidium iodide staining based flow cytometry (reference value: 96.5%); type: functional
[40] = target: Mitotic checkpoint serine/threonine-protein kinase BUB1 beta (Homo sapiens) (UniProt O60566); test: Induction of BubR1 hyperphosphorylation in human HeLa cells by Western blot analysis; type: cell-based
Mitotic checkpoint serine/threonine-protein kinase BUB1 beta (Homo sapiens), sequence (O60566 whole entry): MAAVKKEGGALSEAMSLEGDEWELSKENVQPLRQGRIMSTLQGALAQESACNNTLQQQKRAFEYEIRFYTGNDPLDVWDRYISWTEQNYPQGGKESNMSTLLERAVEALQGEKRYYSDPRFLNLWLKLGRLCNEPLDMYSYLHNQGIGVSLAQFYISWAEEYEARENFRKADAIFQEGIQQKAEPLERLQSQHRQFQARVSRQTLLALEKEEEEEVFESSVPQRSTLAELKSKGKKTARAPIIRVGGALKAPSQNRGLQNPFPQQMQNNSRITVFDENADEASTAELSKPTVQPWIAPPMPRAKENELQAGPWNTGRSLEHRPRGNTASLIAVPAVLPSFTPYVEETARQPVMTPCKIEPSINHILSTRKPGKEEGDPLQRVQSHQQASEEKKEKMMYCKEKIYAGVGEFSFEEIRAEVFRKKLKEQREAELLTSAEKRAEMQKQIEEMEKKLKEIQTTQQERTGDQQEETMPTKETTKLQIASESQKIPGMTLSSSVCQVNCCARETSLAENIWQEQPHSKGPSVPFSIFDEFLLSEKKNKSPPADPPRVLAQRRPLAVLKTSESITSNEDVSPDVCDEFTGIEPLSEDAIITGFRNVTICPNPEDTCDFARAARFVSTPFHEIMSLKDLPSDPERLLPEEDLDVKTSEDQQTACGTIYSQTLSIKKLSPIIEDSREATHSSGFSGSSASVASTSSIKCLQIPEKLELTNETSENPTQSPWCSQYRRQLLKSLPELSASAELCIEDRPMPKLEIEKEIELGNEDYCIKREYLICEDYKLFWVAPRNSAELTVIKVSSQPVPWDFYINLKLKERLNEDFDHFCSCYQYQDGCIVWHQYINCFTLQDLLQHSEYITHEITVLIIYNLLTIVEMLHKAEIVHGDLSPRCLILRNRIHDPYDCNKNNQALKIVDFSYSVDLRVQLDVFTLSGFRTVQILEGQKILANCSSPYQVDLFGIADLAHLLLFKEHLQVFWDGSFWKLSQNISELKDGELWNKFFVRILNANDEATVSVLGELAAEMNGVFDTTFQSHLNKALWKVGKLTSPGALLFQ

**Q.** For `COc1ccc([C@H]2[C@H](C)C(=O)N2c2cc(OC)c(OC)c(OC)c2)cc1O`, which Activity [1] is on record?
**A.** 29.3%

**Q.** And the Activity [2]?
**A.** 33.8%

**Q.** What about the Activity [3] of the same compound?
**A.** Dose-dependent effect

**Q.** What about the survival at 14 day [4] of the same compound?
**A.** 90%

**Q.** What about the Activity [5] of the same compound?
**A.** 27.3%

**Q.** What about the “tubulin polymerization inhibition (active/inactive)” value [6] of the same compound?
**A.** Active

**Q.** And the inhibition [7]?
**A.** Active

**Q.** And the Activity [8]?
**A.** Dose-dependent effect

**Q.** What about the Activity [9] of the same compound?
**A.** Dose-dependent effect

**Q.** What about the Activity [10] of the same compound?
**A.** Dose-dependent effect

**Q.** What about the Activity [11] of the same compound?
**A.** 7.2%

**Q.** And the Activity [12]?
**A.** 23.4%

**Q.** What about the Activity [13] of the same compound?
**A.** 35.2%

**Q.** And the Activity [14]?
**A.** Non-Toxic

**Q.** And the IC50 [15]?
**A.** 3 nM

**Q.** And the Activity [16]?
**A.** 42%

**Q.** What about the Activity [17] of the same compound?
**A.** Non-Toxic

**Q.** What about the inhibition [18] of the same compound?
**A.** Active

**Q.** And the inhibition in vivo at 8 mg/kg [19]?
**A.** 76.3%

**Q.** What about the IC50 [20] of the same compound?
**A.** 3 nM

**Q.** And the Activity [21]?
**A.** Active

**Q.** And the IC50 [22]?
**A.** 1700 nM

**Q.** What about the inhibition [23] of the same compound?
**A.** Dose-dependent effect

**Q.** What about the Activity [24] of the same compound?
**A.** Active

**Q.** And the Activity [25]?
**A.** 37.5%

**Q.** What about the Activity [26] of the same compound?
**A.** 7.5%

**Q.** What about the Activity [27] of the same compound?
**A.** Non-Toxic

**Q.** And the Activity [28]?
**A.** Non-Toxic

**Q.** What about the Activity [29] of the same compound?
**A.** Non-Toxic

**Q.** And the Activity [30]?
**A.** Dose-dependent effect

**Q.** What about the inhibition [31] of the same compound?
**A.** Active

**Q.** What about the IC50 [32] of the same compound?
**A.** 1 nM

**Q.** What about the survival at 14 day [33] of the same compound?
**A.** 70%

**Q.** And the survival at 14 day [34]?
**A.** 30%

**Q.** What about the Activity [35] of the same compound?
**A.** Active

**Q.** What about the Activity [36] of the same compound?
**A.** Non-Toxic

**Q.** What about the Activity [37] of the same compound?
**A.** Non-Toxic

**Q.** What about the Activity [38] of the same compound?
**A.** Dose-dependent effect

**Q.** And the Activity [39]?
**A.** 21.6%

**Q.** What about the Activity [40] of the same compound?
**A.** Dose-dependent effect
